As a reminder, the Ki is a dissociation constant, usually derived from enzyme kinetics or from competition with a known ligand. High values mean weaker binding, low ones tighter binding.

Results on nine molecules are retold here after ChEMBL document CHEMBL1134775, “Structure-based design: potent inhibitors of human brain memapsin 2 (beta-secretase)” (J Med Chem, 2001).

The target in the assay is Beta-secretase 1 (Homo sapiens, UniProt P56817). As to the kind of experiment: Binding affinity for human brain memapsin 2.
Chain of Beta-secretase 1 (P56817 whole entry): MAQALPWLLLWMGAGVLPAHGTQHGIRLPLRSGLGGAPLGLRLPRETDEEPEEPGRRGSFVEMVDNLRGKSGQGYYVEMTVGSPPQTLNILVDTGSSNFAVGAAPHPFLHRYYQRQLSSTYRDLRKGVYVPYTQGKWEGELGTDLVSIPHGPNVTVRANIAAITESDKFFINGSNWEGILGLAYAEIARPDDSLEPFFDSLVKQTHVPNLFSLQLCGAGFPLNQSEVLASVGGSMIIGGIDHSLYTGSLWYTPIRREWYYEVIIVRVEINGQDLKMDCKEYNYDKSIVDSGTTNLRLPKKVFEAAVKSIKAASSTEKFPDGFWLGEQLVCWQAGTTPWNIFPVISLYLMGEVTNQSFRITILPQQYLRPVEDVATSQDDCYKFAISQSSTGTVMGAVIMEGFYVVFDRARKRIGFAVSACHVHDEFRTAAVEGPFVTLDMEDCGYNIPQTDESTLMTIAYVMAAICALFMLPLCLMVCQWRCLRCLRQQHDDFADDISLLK
Molecule `CC(C)C[C@H](NC(=O)[C@H](CS(C)(=O)=O)NC(=O)OC(C)(C)C)[C@@H](O)C[C@@H](C)C(=O)N[C@H](C(=O)NCc1ccccc1)C(C)C` displayed a Ki of 1130 nM.
Next, `CSCC[C@H](NC(=O)[C@@H](NC(=O)OC(C)(C)C)C(C)C)C(=O)N[C@@H](CC(C)C)[C@@H](O)C[C@@H](C)C(=O)N[C@H](C(=O)NCc1ccccc1)C(C)C`: 2.5 nM.
As for `CC(C)C[C@H](NC(=O)[C@H](CC(N)=O)NC(=O)C(N)C(C)C)[C@@H](O)C[C@@H](C)C(=O)N[C@@H](C)C(=O)N[C@H](CCC(=O)O)C(=O)NC(Cc1ccccc1)C(=O)O` (some centres undefined), the figure is 36 nM; as for `CSCC[C@H](NC(=O)OC(C)(C)C)C(=O)N[C@@H](CC(C)C)[C@@H](O)C[C@@H](C)C(=O)N[C@H](C(=O)NCc1ccccc1)C(C)C`, 5810 nM; as for `CC(C)C[C@H](NC(=O)[C@H](CC(N)=O)NC(=O)[C@@H](NC(=O)OC(C)(C)C)C(C)C)[C@@H](O)C[C@@H](C)C(=O)N[C@@H](C)C(=O)NCc1ccccc1`, 61.4 nM.
Next, `CC(C)C[C@H](NC(=O)[C@H](CS(C)(=O)=O)NC(=O)[C@@H](NC(=O)OC(C)(C)C)C(C)C)[C@@H](O)C[C@@H](C)C(=O)N[C@H](C(=O)NCc1ccccc1)C(C)C`: 9.4 nM; `CC(C)C[C@H](NC(=O)[C@H](CC(N)=O)NC(=O)OC(C)(C)C)[C@@H](O)C[C@@H](C)C(=O)N[C@@H](C)C(=O)NCc1ccccc1`: 22400 nM; `CC(C)C[C@H](NC(=O)[C@H](CC(N)=O)NC(=O)[C@@H](NC(=O)OC(C)(C)C)C(C)C)[C@@H](O)C[C@@H](C)C(=O)N[C@H](C(=O)NCc1ccccc1)C(C)C`: 5.9 nM.
`CSC[C@H](NC(=O)[C@@H](NC(=O)OC(C)(C)C)C(C)C)C(=O)N[C@@H](CC(C)C)[C@@H](O)C[C@@H](C)C(=O)N[C@H](C(=O)NCc1ccccc1)C(C)C` yielded a Ki of 50.1 nM.
